Data as given in patent US20040175378A1, “Selected antibody compositions and methods for binding to aminophospholipids” (Board of Regents, The University of Texas System, priority 2002, published 2004).

What was measured:
Factor X = test: Chromogenic assay of coaguligand-induced Factor Xa formation on bEnd.3 cells; assay type: cell-based; details: Annexin V 10 μg per ml; cells preincubated with anti-VCAM-1•tTF
Procedure: The ability of Annexin V to affect Factor Xa formation induced by coaguligand was determined by a chromogenic assay. IL-1α-stimulated bEnd.3 cells were incubated with anti-VCAM-•tTF and permeabilized by saponin. Annexin V was added at concentrations ranging from 0.1 to 10 μg/ml and cells were incubated for 30 min. before addition of diluted Proplex T. The amount of Factor Xa generated in the presence or absence of Annexin V was determined. Each treatment was performed in duplicate and repeated at least twice.
Annexin V added to permeabilized cells preincubated with anti-VCAM-1•tTF inhibited the formation of factor Xa in a dose-dependent manner. In the absence of Annexin V, cell-bound coaguligand produced 95 ng of factor Xa per 10,000 cells per 60 min. The addition of increasing amounts of Annexin V (in the μg per ml range) inhibited factor Xa production. At 10 μg per ml, Annexin V inhibited factor Xa production by 58%.

[1] = test system: blood vessels of L540 Hodgkin tumors; test: Annexin V inhibition of coaguligand-induced thrombosis in vivo; parameters: species or system SCID mice; details: 100 μg Annexin V 2 hours before 40 μg anti-VCAM-1•tTF
Procedure: The ability of Annexin V to inhibit coaguligand-induced thrombosis in vivo was examined in L540 Hodgkin-bearing SCID mice. Tumors were grown in mice and two mice per group (tumor size 0.5 cm in diameter) were injected intravenously via the tail vein with one of the following reagents: a) saline; b) 100 μg of Annexin V; c) 40 μg of anti-VCAM-1•tTF; d) 100 μg of Annexin V followed 2 hours later by 40 μg of anti-VCAM-1•tTF.
Four hours after the last injection mice were anesthetized and perfused with heparinized saline. Tumors were removed, fixed with 4% formalin, paraffin-embedded and stained with hematoxylene-eosin. The number of thrombosed and non-thrombosed blood vessels was counted and the percentage of thrombosis was calculated.

[2] = Phospholipid specificity ELISA; assay type: binding; details: phospholipid-coated plates
Procedure: The specificity of the antibodies was determined by ELISA using plates coated with the following phospholipids: PS, phosphatidylserine; PE, phosphatidylethanolamine; PI, phosphatidylinositol; PA, phosphatidic acid; PG, phosphatidylglycerol; PC, phosphatidylcholine; CL, cardiolipin; and SM, sphingomyelin.

[3] = ELISA binding to anionic phospholipids in 5 mM EDTA (Ca2+ requirement)
Procedure: The specificity of the 9D2 antibody binding was validated by using control rat IgM of irrelevant specificity (Pharmingen, San Diego, Calif.). The specificity of annexin V binding to phospholipids, which is Ca^2+-dependent, was determined by diluting the reagent in the DPBS containing 5 mM EDTA. Additional negative controls consisted of washing the plates with the binding buffer containing 0.2% of a detergent Tween 20. This treatment extracts lipids, thus removing the phospholipid that was absorbed to plastic. Neither 9D2 antibody nor annexin V bound to detergent-washed plates.

[4] = test system: anionic phospholipids on vascular endothelium; test: Localization of 9D2 and annexin V in tumor bearing mice, indirect immunohistochemistry; assay type: in vivo; details: 50 μg antibody or 100 μg biotinylated annexin V i.v., 60 min
Procedure: To detect externally-positioned phospholipids, methods were performed essentially as previously described (Example V; Ran et al., 1998). Tumor-bearing SCID mice were injected intravenously with either 50 μg of 9D2 or biotinylated 9D2 antibody or 100 μg of biotinylated annexin V. Sixty min later mice were sacrificed and their blood circulation was exsanguinated and perfused with heparinized saline as previously described (Burrows et al., 1992). All major organs and tumor were harvested and snap-frozen for preparation of cryosections.
Sections were blocked with PBS containing 10% serum. To prevent loss of phospholipids during slide processing, detergents and organic solvents were omitted from blocking and washing buffers. Rat IgM was detected using goat anti rat IgM (μ specific)-HRP conjugate followed by development with carbazole or DAB (Fries et al., 1993). Biotinylated reagents were detected by streptavidin conjugated to HRP.
Tumor sections derived from mice injected with saline or rat IgM of irrelevant specificity served as negative controls. […] No signal was detected under these conditions. The number of positive vessels per high power field was determined at magnification of ×100. At least 10 fields per section were examined and the average percentage of positive vessels was calculated. […]
Structures with localized 9D2 antibody or annexin V were identified as blood vessels by morphological appearance on DAB-stained sections and by co-incident staining with the pan-endothelial cell marker, MECA 32 on serial sections of frozen tissues. Quantification on DAB-stained sections was done by counting vessels stained by MECA 32, 9D2 or annexin V in serial sections of a tumor. […] At least 10 random fields per section (0.317 mm^2/field) were scored in blinded fashion by two independent observers. The mean numbers and standard errors of vessels stained by 9D2, annexin V or MECA 32 were calculated. The mean number of 9D2 or annexin V-positive vessels determined in each tumor type group was compared to the mean number of MECA 32-positive vessels in the same tumor group. […]

[5] = test system: vascular endothelium of MDA-MB-231 breast tumors; test: Double staining of orthotopic MDA-MB-231 tumors after i.v. biotinylated 9D2 or annexin V; assay type: in vivo, mice; details: 1 h
Procedure: In further studies, mice bearing MDA-MB-231 tumors (0.3-0.7 cm^3 in volume) were injected intravenously with 50 μg of biotinylated 9D2, control IgM or annexin V (six mice per group). Biotinylated reagents were first incubated with streptavidin-Cy3 conjugate, washed in PBS, then incubated with MECA 32 antibody followed by FITC-tagged anti-rat IgG secondary antibody. Single images, taken with appropriate filters for Cy3 (red) and FITC (green) fluorescence respectively, were captured by digital camera and transferred to a computer. […] The same method was used to analyze tumors from mice injected with control rat IgM or saline. The percentage of vessels with localized 9D2 or annexin V was calculated as follows: mean number of yellow vessels per field divided by mean number of green (total) vessels multiplied by 100.
Double staining studies were also performed in which mice bearing orthotopic MDA-MB-231 breast tumors were injected intravenously with biotinylated 9D2 antibody, biotinylated control IgM or biotinylated annexin V. One hour later, the mice were exsanguinated, and their tumors were removed and frozen sections were cut. The tumor sections were then stained with Cy3-conjugated streptavidin to detect the biotinylated proteins and with FITC-conjugated MECA32 to detect vascular endothelium. […]

## Annexin V: natural ligand that binds to anionic phospholipids; commercial biotinylated or recombinant human annexin V
Factor X
  inhibition of factor Xa production: 58%
[1]
  coaguligand-induced intravascular thrombosis and changes in tumor cell morphology: completely abolished
[2]
  Relative Strength of Reactivity on ELISA: PS = PE = PI = PA > CL > PG
[3]
  binding to anionic phospholipids in the presence of 5 mM EDTA: abolished in the presence of 5 mM EDTA
[4]; B16 tumor
  positive vessels of MECA 32-stained vessels per field, mean ± SE: 21.3 ± 6.6%
[4]; L540cy tumor
  positive vessels of MECA 32-stained vessels per field, mean ± SE: 16.7 ± 3.9%
[4]; MDA-MB-231 tumor
  positive vessels of MECA 32-stained vessels per field, mean ± SE: 45.3 ± 5.6%
[5]
  MECA 32 positive vessels that bound the reagent: About 40%
